Test [1] concerns the target T1, His6-tagged IGS5 ectodomain (Homo sapiens, UniProt Q495T6).
T1 construct: Enzyme: IGS-5 (sol hu)(his)6; or: His6-tagged IGS5 ectodomain;; made in house; host or cells: Sf9 insect cells, recombinant baculovirus IGBV73, purified from culture supernatant
T1 sequence (Q495T6 49-779 limits assumed): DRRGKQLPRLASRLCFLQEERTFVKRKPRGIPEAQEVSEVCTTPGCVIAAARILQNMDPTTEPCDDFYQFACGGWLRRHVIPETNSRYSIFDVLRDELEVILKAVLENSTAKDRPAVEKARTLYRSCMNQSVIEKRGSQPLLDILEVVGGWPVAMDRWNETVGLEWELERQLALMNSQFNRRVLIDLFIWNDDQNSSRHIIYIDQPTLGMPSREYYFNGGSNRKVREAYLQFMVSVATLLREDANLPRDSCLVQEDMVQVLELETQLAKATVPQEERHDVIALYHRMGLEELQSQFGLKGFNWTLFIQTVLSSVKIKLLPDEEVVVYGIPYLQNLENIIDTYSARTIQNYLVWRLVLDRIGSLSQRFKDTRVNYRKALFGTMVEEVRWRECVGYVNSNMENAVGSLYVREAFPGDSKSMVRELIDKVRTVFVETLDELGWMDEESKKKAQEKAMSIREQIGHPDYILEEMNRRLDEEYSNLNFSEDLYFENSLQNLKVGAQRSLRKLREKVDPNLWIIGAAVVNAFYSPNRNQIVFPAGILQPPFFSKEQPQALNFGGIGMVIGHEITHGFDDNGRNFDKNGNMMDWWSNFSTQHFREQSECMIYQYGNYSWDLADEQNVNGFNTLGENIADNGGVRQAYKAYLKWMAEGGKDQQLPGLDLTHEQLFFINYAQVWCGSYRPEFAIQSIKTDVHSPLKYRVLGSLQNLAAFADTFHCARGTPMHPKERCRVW
Nature of the test: IGS5 enzyme inhibition assay (fluorescence-quenched big-ET-1 analog, HPLC). To be noted: for IC50: conversion of labeled fluorescent big-ET-1 analog. The format is biochemical. The method, then: (§1) The enzymatic activity of IGS5 polypeptides of the invention was tested with regard to the metabolism of biologically active peptides. In particular it was tested whether these IGS5 polypeptides may act on a variety of vasoactive peptides known in the state of the art e.g. such like atrial natriuretic peptide (ANP), bradykinin, big-endothelin (big-ET-1), endothelin (ET-1), substance P and angiotensin-1. In the context of the present invention in particular it was tested whether the IGS5 ectodomain, which is a novel human metalloprotease, hydrolyzes said vasoactive peptides. For comparison the assay was also performed for a known member of the metalloprotease family which was described earlier as soluble secreted endopeptidase (SEP) by Emoto et al. (J. Biol. Chem., Vol. 274 (1999): pp. 32469-32477). Furthermore, it was tested whether the activity of IGS5 to convert a big-ET-1 analog (the so-called 17 aa big-ET-1) may be inhibited by reference compounds that are used to determine the inhibition properties with regard to enzymes having ECE and/or NEP-characteristics.
Enzyme: IGS-5 (sol hu)(his)6; or: His6-tagged IGS5 ectodomain;
stock solution: 53 μg/ml in 20 mM HEPES pH 7.2, 5% glycerol, 0.005% Tween20, 100 mM NaCl, purity >99%; storage at 4° C.
working solution: stock solution diluted with assay buffer to 10 μg/ml.
Substrate: Mca-Asp-Ile-Ala-Trp-Phe-Dpa-[…]COOH;
Fluorescence-quenched big-ET-1 analog;
Assay buffer: 100 mM Tris pH 7.0, 250 mM NaCl.
All test compounds were dissolved in DMSO at 10 mM and were further diluted with assay buffer.
A quantity of 70 μl of the assay buffer, of 10 μl enzyme working solution and of 10 μl test compound solution were mixed in an Eppendorf vial and preincubated at 37° C. for 15 minutes. Then, 10 μl substrate stock solution was added and the reaction mixture was incubated at 37° C. for 60 minutes to allow for enzymatic hydrolysis. Subsequently the enzymatic reaction was terminated by heating at 95° C. for 5 minutes. After centrifugation (Heraeus Biofuge B, 3 min) the supernatant was subjected to HPLC analysis.
In order to separate the remaining substrate from the cleavage products reversed phase HPLC technique was used with a CC 125/4 Nucleosil 300/5 C18 RP column and a CC 8/4 Nucleosil 100/5 C18 precolumn (commercially available from Macherey-Nagel, Düren, Germany). Thus, 60 μl of the reaction samples obtained in Example 7b were injected into the HPLC, and the column was eluted at a flow rate of 1 ml/min by applying the following gradient and solutions: […]
The increasing fluorescence signal of the HPLC-peak of the peptide with the unquenched Mca-fluorophor after hydrolysis was taken as the basis for any calculation.
This signal was compared for the samples with and without inhibitor and % inhibition was calculated on basis of the respective peak areas.
% inhib=100*(1−Ainhib/Acontrol)
All samples were run in duplicate and mean values were used.
(§2) Furthermore, the potency of metalloprotease inhibitor compounds and reference compounds to suppress the conversion of big-ET to ET-1 was examined as described in this example 7, using a labeled fluorescent big-ET-1 analog. The procedures applied in the enzyme assays are described above in the examples 4 with regard to IGS5, in example 5 with regard to NEP, and in example 6 with regard to ECE.

The next test addresses T2, IGS5 polypeptide (Homo sapiens, UniProt Q495T6).
T2 construct: Enzyme: IGS-5 (sol hu)(his)6; or: His6-tagged IGS5 ectodomain;; made in house; host or cells: Sf9 insect cells, recombinant baculovirus IGBV73, purified from culture supernatant
T2 sequence (Q495T6 49-779 limits assumed): T1 sequence (Q495T6 49-779 limits assumed)
The test can be described thus: Hydrolysis of vasoactive peptides by IGS5 polypeptides. The test is classed as biochemical. The following applies: 0.5 μM substrate, 2 h, 37° C. The method, then:
as §1

Test [2] has as its target T3, SEP (soluble secreted endopeptidase) (Mus musculus, UniProt Q9JLI3).
T3 sequence (Q9JLI3 63-765 limits assumed): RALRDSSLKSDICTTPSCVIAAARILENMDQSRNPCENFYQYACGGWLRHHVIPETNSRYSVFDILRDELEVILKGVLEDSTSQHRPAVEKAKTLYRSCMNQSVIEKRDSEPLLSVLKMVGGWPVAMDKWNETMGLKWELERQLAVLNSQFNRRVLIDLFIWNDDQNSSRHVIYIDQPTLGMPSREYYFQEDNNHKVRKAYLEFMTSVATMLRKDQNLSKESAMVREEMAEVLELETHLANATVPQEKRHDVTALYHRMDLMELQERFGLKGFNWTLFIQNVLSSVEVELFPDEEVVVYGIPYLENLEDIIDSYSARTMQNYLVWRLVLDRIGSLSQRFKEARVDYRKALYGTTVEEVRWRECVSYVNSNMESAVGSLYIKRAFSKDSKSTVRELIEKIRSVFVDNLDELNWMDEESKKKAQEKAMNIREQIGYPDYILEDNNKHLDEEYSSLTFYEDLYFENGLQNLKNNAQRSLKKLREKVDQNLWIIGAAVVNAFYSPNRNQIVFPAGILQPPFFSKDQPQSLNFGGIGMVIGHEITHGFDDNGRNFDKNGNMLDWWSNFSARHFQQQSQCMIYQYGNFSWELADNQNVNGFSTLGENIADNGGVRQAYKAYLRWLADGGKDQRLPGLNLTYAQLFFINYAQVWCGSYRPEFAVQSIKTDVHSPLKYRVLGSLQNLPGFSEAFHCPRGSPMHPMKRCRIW
The following applies: 10 μg SEP; 0.5 μM substrate; 12 h, 37° C.; cited from earlier work.

Test [3] has as its target Neutral endopeptidase (E.C. 3.4.24.11) (Sus scrofa, UniProt A0A4X1SQE6). Nature of the test: NEP enzyme inhibition assay (methionin-enkephalin substrate, HPLC). The test is classed as biochemical, pig. The method, then: Neutral endopeptidase (E.C. 3.4.24.11) was prepared from pig kidney cortex according to the method of Gee et al. (Biochem J 1985 May 15;228(1):119-26) and purified as reported by Relton et al. (Biochem J 1983 Dec. 1;215(3):519-23). For the enzyme inhibition assay 10 ng of the purified enzyme, 20 μM substrate (methionin-enkephalin) and various inhibitor concentrations were used. The assay buffer was 50 mM Tris-(hydroxymethyl)-aminomethan/HCl pH 7.4, the total assay volume was 100 μl. After a preincubation period of 5 min of enzyme and inhibitor, the substrate was added and subsequently a second incubation phase for enzyme induced substrate hydrolysis at 37° C. for 30 min was initiated. The enzymatic reaction was stopped by heating at 95° C. for 5 min. After centrifugation the supernatant was subjected to HPLC. The products of enzymatic substrate hydrolysis were separated from the native substrate by HPLC technique and the inhibitor potency calculated by comparing the peak areas of the products with the peak area of native substrate for both, the samples with and without inhibitor (control). Blanks without enzyme, controls without inhibitor, samples with inhibitor solvent instead of the inhibitor and samples with a standard inhibitor were added to each assay run.
as §2

The test system of test [4] is patients with congestive heart failure. The test can be described thus: Open, baseline controlled pilot trial in patients with congestive heart failure. To be noted: following compound Ia-2 administration; p<0.001. The format is in vivo, human. The method, then:
To proof the concept of clinical efficacy and safety of compound Ia-2 in man, 6 clinical trials were conducted in healthy volunteers and 2 proof of concept trials were conducted in patients: One randomized, placebo-controlled double-blind trial in patients with hypertension (N=191) and one open, baseline controlled pilot trial in patients with congestive heart failure (N=29). […] In the Intent-to-treat patient population (ITT), office diastolic blood pressure versus placebo decreased by −6.9 mmHg (last value under treatment; p<0.001) and office systolic blood pressure versus placebo decreased by −9.2 mmHg (last value under treatment; p=0.003) at the highest dose investigated (200 mg bid).

Entries after “also recorded” stand apart in the source; their conditions may differ. Where two headings read alike, the source gives them in different places. Marks after values point to notes of the source that are not given here. No end group written: not given here.

Sequence of Neutral endopeptidase (E.C. 3.4.24.11) (A0A4X1SQE6 entry or part of it): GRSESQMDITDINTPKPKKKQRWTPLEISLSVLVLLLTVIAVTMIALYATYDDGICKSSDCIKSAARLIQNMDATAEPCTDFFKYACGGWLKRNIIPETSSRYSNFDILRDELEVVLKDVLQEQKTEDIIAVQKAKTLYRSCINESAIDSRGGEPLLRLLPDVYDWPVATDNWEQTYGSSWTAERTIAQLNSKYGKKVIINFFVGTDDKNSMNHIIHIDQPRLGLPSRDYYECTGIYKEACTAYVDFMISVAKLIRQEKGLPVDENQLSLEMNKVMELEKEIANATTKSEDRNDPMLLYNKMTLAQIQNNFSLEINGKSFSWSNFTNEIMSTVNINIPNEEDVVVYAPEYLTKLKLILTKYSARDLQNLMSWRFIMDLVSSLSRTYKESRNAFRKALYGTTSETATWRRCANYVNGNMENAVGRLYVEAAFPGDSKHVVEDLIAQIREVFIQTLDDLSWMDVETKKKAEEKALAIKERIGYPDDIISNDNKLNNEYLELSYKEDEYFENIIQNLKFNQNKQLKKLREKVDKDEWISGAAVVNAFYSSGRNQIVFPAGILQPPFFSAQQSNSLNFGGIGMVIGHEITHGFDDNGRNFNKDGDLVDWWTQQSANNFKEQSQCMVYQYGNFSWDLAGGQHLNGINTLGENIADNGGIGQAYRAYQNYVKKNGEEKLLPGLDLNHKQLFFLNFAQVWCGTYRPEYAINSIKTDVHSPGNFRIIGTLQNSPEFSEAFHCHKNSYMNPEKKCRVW

Turning to `Cc1nn(-c2ccccc2)c(NC(=O)NS(=O)(=O)c2ccc(Cl)cc2)c1C#N.[Na]`, the “inhibition of IGS5 activity (in words)” value in test [1] (monosodium salt) was “no inhibition of IGS5; also recorded: do not affect the activity of IGS5”.

As to `CC[C@H](C)[C@@H]1NC(=O)[C@H](CCCNC(=N)N)NC(=O)[C@H](CC(=O)O)NC(=O)[C@H](CCSC)NC(=O)[C@H](CCCNC(=N)N)NC(=O)CNC(=O)CNC(=O)[C@H](Cc2ccccc2)NC(=O)[C@@H](NC(=O)[C@H](CO)NC(=O)[C@H](CO)NC(=O)[C@H](CCCNC(=N)N)NC(=O)[C@H](CCCNC(=N)N)NC(=O)[C@H](CC(C)C)NC(=O)[C@@H](N)CO)CSSC[C@@H](C(=O)N[C@@H](CC(N)=O)C(=O)N[C@@H](CO)C(=O)N[C@@H](Cc2ccccc2)C(=O)N[C@@H](CCCNC(=N)N)C(=O)N[C@@H](Cc2ccc(O)cc2)C(=O)O)NC(=O)CNC(=O)[C@H](CC(C)C)NC(=O)CNC(=O)[C@H](CO)NC(=O)[C@H](CCC(N)=O)NC(=O)[C@H](C)NC(=O)CNC1=O` [ANP], the “% Hydrolysis by IGS5 Polypeptide” value at IGS5 polypeptide (100 μg IGS5 polypeptide) is listed as 5%; on IGS5 polypeptide (500 μg IGS5 polypeptide), 80%. In test [2], the “% Hydrolysis by SEP (Emoto et al.)” value was more than 95%.

As to `CC[C@H](C)[C@H](NC(=O)[C@H](CC(=O)O)NC(=O)[C@H](CC(C)C)NC(=O)[C@H](Cc1c[nH]cn1)NC(=O)[C@@H]1CSSC[C@H](N)C(=O)N[C@@H](CO)C(=O)N[C@H]2CSSC[C@H](NC(=O)[C@H](CCC(=O)O)NC(=O)[C@H](CCCCN)NC(=O)[C@H](CC(=O)O)NC(=O)[C@H](CCSC)NC(=O)[C@H](CC(C)C)NC(=O)[C@H](CO)NC(=O)[C@H](CO)NC2=O)C(=O)N[C@@H](C(C)C)C(=O)N[C@@H](Cc2ccc(O)cc2)C(=O)N[C@@H](Cc2ccccc2)C(=O)N1)C(=O)N[C@H](C(=O)N[C@@H](Cc1c[nH]c2ccccc12)C(=O)O)[C@@H](C)CC` [ET-1], the “% Hydrolysis by IGS5 Polypeptide” value on IGS5 polypeptide (100 μg IGS5 polypeptide) is listed as less than 30%. Further, the “% Hydrolysis by SEP (Emoto et al.)” value in test [2] is on record as 92%.

In the case of `CC(C)C[C@H](NP(=O)(O)O[C@@H]1O[C@@H](C)[C@H](O)[C@@H](O)[C@H]1O)C(=O)N[C@@H](Cc1c[nH]c2ccccc12)C(=O)O` [Phosphoramidon], in test [1], the “inhibition of IGS5 activity (in words)” value was “inhibits IGS5 with high potency”. The results for the IC50 in test [1] and in test [3] were 18 nM and 2 nM, respectively.

In the case of `O=C(O)CN1C(=O)[C@@H](NC(=O)C2(C[C@@H](CCc3ccccc3)C(=O)O)CCCC2)CCc2ccccc21` [compound Ia-1, (3S,2′R)-3-{1-[2′-carboxy-4′-phenylbutyl]-cyclopentane-1-carbonylamino}-2,3,4,5-tetrahydro-2-oxo-1H-1-benzazepine-1-acetic acid], the “correlation between log plasma concentrations of compound Ia-1 and plasma levels of big-ET” value in test [4] is “significant positive correlation”.

As for `Cc1nn(-c2ccccc2)c(NC(=O)NS(=O)(=O)c2ccc(Cl)cc2)c1C#N.[Na]` [monosodium salt], the IC50 is more than 10000 nM in test [1] and more than 1000 nM in test [3] (20 μM methionin-enkephalin, read-out: NEP IC50).

“Angiotensin 1: vasoactive peptide tested as substrate (DRVYIHPFHL; Angiotensin-1; UniProt P01019 25-34, looked up)”: the “% Hydrolysis by IGS5 Polypeptide” value with IGS5 polypeptide (100 μg IGS5 polypeptide) is on record as 15*** %. Besides, the “% Hydrolysis by SEP (Emoto et al.)” value in test [2] is listed as more than 95%.

As to “Mca-Asp-Ile-Ala-Trp-Phe-Dpa-Thr-Pro-Glu-His-Val-Val-Pro-Tyr-Gly-Leu-Gly-COOH [17 aa big-ET-1]”, on IGS5 polypeptide (100 μg IGS5 polypeptide), the “% Hydrolysis by IGS5 Polypeptide” value turned out to be 41%.

For RPPGFSPFR [Bradykinin], the “% Hydrolysis by IGS5 Polypeptide” value was found to be 62% on IGS5 polypeptide (10 μg IGS5 polypeptide) and 100% at IGS5 polypeptide (100 μg IGS5 polypeptide).

Take “Substance P: vasoactive peptide tested as substrate”: the “% Hydrolysis by IGS5 Polypeptide” value in the test with IGS5 polypeptide (100 μg IGS5 polypeptide) is given as 100%. The “% Hydrolysis by SEP (Emoto et al.)” value in test [2] is more than 95%.

In turn, “tert-Butyl (3S)-3-(1-benzylethylphosphonomethyl-cyclopentane-1-carbonylamino)-2,3,4,5-tetrahydro-2-oxo-1H-1-benzazepine-1-acetate [compound Ib-8]” came in with an IC50 in test [1] of 2.9 nM.

The values above are taken from patent US20040162345A1, “Compounds with NEP/MP-inhibitory activity and uses thereof” (Solvay Pharmaceuticals GmbH, priority 2001, published 2004).
